From PubChem BioAssay (NCI)
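Assay format: 96-well plates, 48-hour exposure. Definition used: TGI = concentration required for complete inhibition of growth.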

Tests used:
Assay in all cases: DTP human tumour cell line panel, 48 h
M14 melanoma = test system: M14 melanoma
CCRF-CEM leukemia = test system: CCRF-CEM leukemia
MCF7 breast = test system: MCF7 breast
RPMI-8226 leukemia = test system: RPMI-8226 leukemia
PC-3 prostate = test system: PC-3 prostate
UO-31 renal = test system: UO-31 renal
OVCAR-4 ovarian = test system: OVCAR-4 ovarian
EKVX NSCLC = test system: EKVX NSCLC
K-562 leukemia = test system: K-562 leukemia
OVCAR-3 ovarian = test system: OVCAR-3 ovarian
NCI-H226 lung = test system: NCI-H226 lung
IGROV1 ovarian = test system: IGROV1 ovarian
HCT-116 colon = test system: HCT-116 colon
MDA-MB-435 = test system: MDA-MB-435
HL-60(TB) leukemia = test system: HL-60(TB) leukemia
HOP-92 NSCLC = test system: HOP-92 NSCLC

N=c1c2ccccc2nc2oc3cc([N+](=O)[O-])ccc3n12
TGI (M14 melanoma): > 100 µM
TGI (CCRF-CEM leukemia): > 100 µM
TGI (MCF7 breast): > 100 µM
TGI (RPMI-8226 leukemia): > 100 µM
TGI (PC-3 prostate): > 100 µM
TGI (UO-31 renal): 32.3 µM
TGI (OVCAR-4 ovarian): > 100 µM
TGI (EKVX NSCLC): 89 µM
TGI (K-562 leukemia): > 100 µM
TGI (OVCAR-3 ovarian): 70.8 µM
TGI (NCI-H226 lung): 30.3 µM
TGI (IGROV1 ovarian): > 100 µM
TGI (HCT-116 colon): > 100 µM
TGI (MDA-MB-435): > 100 µM

Cc1c(N=Nc2ccccc2)c(-c2ccccc2)n(C2OC(CO)C(O)C(O)C2O)c(=S)c1C#N (stereo not drawn)
TGI (M14 melanoma): 19.3 µM
TGI (MCF7 breast): 17.1 µM
TGI (RPMI-8226 leukemia): > 100 µM
TGI (HL-60(TB) leukemia): > 100 µM
TGI (PC-3 prostate): 15.6 µM
TGI (UO-31 renal): 39.4 µM
TGI (OVCAR-4 ovarian): 26.1 µM
TGI (EKVX NSCLC): 42.5 µM
TGI (K-562 leukemia): > 100 µM
TGI (OVCAR-3 ovarian): 18 µM
TGI (NCI-H226 lung): 28.5 µM
TGI (IGROV1 ovarian): 22.5 µM
TGI (MDA-MB-435): 19.5 µM

O=[N+]([O-])/C(C(Cl)=C(Cl)Cl)=C1\Nc2ccc([N+](=O)[O-])cc2N1
TGI (M14 melanoma): > 100 µM
TGI (CCRF-CEM leukemia): 56.2 µM
TGI (MCF7 breast): > 100 µM
TGI (RPMI-8226 leukemia): > 100 µM
TGI (PC-3 prostate): > 100 µM
TGI (UO-31 renal): 27.5 µM
TGI (OVCAR-4 ovarian): > 100 µM
TGI (EKVX NSCLC): > 100 µM
TGI (K-562 leukemia): > 100 µM
TGI (HOP-92 NSCLC): > 100 µM
TGI (OVCAR-3 ovarian): > 100 µM
TGI (NCI-H226 lung): > 100 µM
TGI (HCT-116 colon): > 100 µM
TGI (MDA-MB-435): > 100 µM

O=C(/C=C/c1cccc([N+](=O)[O-])c1)N1CCN(CCOC(c2ccccc2)c2ccccc2)CC1
TGI (M14 melanoma): > 100 µM
TGI (CCRF-CEM leukemia): 65.4 µM
TGI (MCF7 breast): > 100 µM
TGI (RPMI-8226 leukemia): 27.8 µM
TGI (UO-31 renal): > 100 µM
TGI (OVCAR-4 ovarian): > 100 µM
TGI (EKVX NSCLC): > 100 µM
TGI (K-562 leukemia): 50.7 µM
TGI (HOP-92 NSCLC): 55.7 µM
TGI (OVCAR-3 ovarian): > 100 µM
TGI (IGROV1 ovarian): > 100 µM
TGI (HCT-116 colon): 51.8 µM
TGI (MDA-MB-435): > 100 µM

Cc1cccc(N/C(=C(/C(Cl)=C(Cl)Cl)[N+](=O)[O-])n2nnc3ccccc32)c1
TGI (M14 melanoma): 47.5 µM
TGI (CCRF-CEM leukemia): > 100 µM
TGI (MCF7 breast): 50 µM
TGI (RPMI-8226 leukemia): > 100 µM
TGI (PC-3 prostate): 30.1 µM
TGI (UO-31 renal): 31 µM
TGI (OVCAR-4 ovarian): 39.5 µM
TGI (EKVX NSCLC): 39.6 µM
TGI (K-562 leukemia): > 100 µM
TGI (OVCAR-3 ovarian): 35.5 µM
TGI (NCI-H226 lung): 26.6 µM
TGI (HCT-116 colon): 32.9 µM
TGI (MDA-MB-435): 38.8 µM

COc1cccc(Nc2nc(C)c([N+](=O)[O-])c(Nc3cccc(OC)c3)n2)c1
TGI (M14 melanoma): > 100 µM
TGI (MCF7 breast): > 100 µM
TGI (RPMI-8226 leukemia): 45.9 µM
TGI (HL-60(TB) leukemia): > 100 µM
TGI (PC-3 prostate): > 100 µM
TGI (UO-31 renal): > 100 µM
TGI (EKVX NSCLC): 78.4 µM
TGI (K-562 leukemia): > 100 µM
TGI (HOP-92 NSCLC): > 100 µM
TGI (OVCAR-3 ovarian): 57.2 µM
TGI (NCI-H226 lung): > 100 µM
TGI (IGROV1 ovarian): > 100 µM
TGI (HCT-116 colon): > 100 µM

Cc1cn(C2OC(CO[Si](C)(C)C(C)(C)C)/C(=C\C#N)C2O[Si](C)(C)C(C)(C)C)c(=O)[nH]c1=O (stereo not drawn)
TGI (M14 melanoma): > 100 µM
TGI (CCRF-CEM leukemia): > 100 µM
TGI (MCF7 breast): > 100 µM
TGI (RPMI-8226 leukemia): > 100 µM
TGI (PC-3 prostate): > 100 µM
TGI (UO-31 renal): > 100 µM
TGI (OVCAR-4 ovarian): > 100 µM
TGI (K-562 leukemia): > 100 µM
TGI (HOP-92 NSCLC): > 100 µM
TGI (OVCAR-3 ovarian): > 100 µM
TGI (NCI-H226 lung): > 100 µM
TGI (HCT-116 colon): > 100 µM
TGI (MDA-MB-435): > 100 µM

CCCN(CCc1ccc(-c2ccccc2)cc1)CCc1ccc2n[nH]nc2c1
TGI (M14 melanoma): 25.4 µM
TGI (CCRF-CEM leukemia): 19.4 µM
TGI (MCF7 breast): > 51.2 µM
TGI (RPMI-8226 leukemia): 28.1 µM
TGI (PC-3 prostate): 22.1 µM
TGI (UO-31 renal): 22.4 µM
TGI (OVCAR-4 ovarian): 33.3 µM
TGI (EKVX NSCLC): 27.5 µM
TGI (K-562 leukemia): 18.4 µM
TGI (HOP-92 NSCLC): 15.2 µM
TGI (OVCAR-3 ovarian): 25.8 µM
TGI (NCI-H226 lung): 36.7 µM
TGI (IGROV1 ovarian): 22.1 µM
TGI (HCT-116 colon): 18.1 µM
TGI (MDA-MB-435): 28.6 µM

O=C1Cc2c([nH]c3ccc(Br)cc23)-c2cc(Br)ccc2N1
TGI (M14 melanoma): > 100 µM
TGI (CCRF-CEM leukemia): > 100 µM
TGI (MCF7 breast): > 100 µM
TGI (RPMI-8226 leukemia): > 100 µM
TGI (PC-3 prostate): > 100 µM
TGI (UO-31 renal): > 100 µM
TGI (OVCAR-4 ovarian): > 100 µM
TGI (EKVX NSCLC): > 100 µM
TGI (K-562 leukemia): > 100 µM
TGI (HOP-92 NSCLC): > 100 µM
TGI (NCI-H226 lung): > 100 µM
TGI (MDA-MB-435): > 100 µM

CC(C)(C)c1cc(S(=O)(=O)O)c2oc(-c3ccccc3)cc(=O)c2c1
TGI (CCRF-CEM leukemia): > 100 µM
TGI (MCF7 breast): > 100 µM
TGI (RPMI-8226 leukemia): > 100 µM
TGI (HL-60(TB) leukemia): > 100 µM
TGI (PC-3 prostate): > 100 µM
TGI (UO-31 renal): > 100 µM
TGI (EKVX NSCLC): > 100 µM
TGI (K-562 leukemia): > 100 µM
TGI (OVCAR-3 ovarian): > 100 µM
TGI (NCI-H226 lung): > 100 µM
TGI (IGROV1 ovarian): > 100 µM
TGI (HCT-116 colon): > 100 µM
TGI (MDA-MB-435): > 100 µM

OCC1OC(NC(=S)NCCC(F)(F)C(F)(F)C(F)(F)C(F)(F)C(F)(F)C(F)(F)F)C(O)C(O)C1O (stereo not drawn)
TGI (M14 melanoma): > 100 µM
TGI (CCRF-CEM leukemia): > 100 µM
TGI (MCF7 breast): > 100 µM
TGI (RPMI-8226 leukemia): > 100 µM
TGI (HL-60(TB) leukemia): > 100 µM
TGI (PC-3 prostate): > 100 µM
TGI (UO-31 renal): > 100 µM
TGI (OVCAR-4 ovarian): > 100 µM
TGI (K-562 leukemia): > 100 µM
TGI (HOP-92 NSCLC): > 100 µM
TGI (OVCAR-3 ovarian): > 100 µM
TGI (IGROV1 ovarian): > 100 µM
TGI (HCT-116 colon): > 100 µM
TGI (MDA-MB-435): > 100 µM

COc1ccccc1C[C@@H]1OC2(C=CC(=O)CC2SC(=O)c2ccccc2)O[C@H]1Cc1ccccc1OC (stereo partly drawn)
TGI (M14 melanoma): 3.26 µM
TGI (CCRF-CEM leukemia): 1.03 µM
TGI (MCF7 breast): 2.36 µM
TGI (RPMI-8226 leukemia): 0.943 µM
TGI (HL-60(TB) leukemia): 5.64 µM
TGI (PC-3 prostate): 4.71 µM
TGI (UO-31 renal): 2.54 µM
TGI (OVCAR-4 ovarian): 3.69 µM
TGI (K-562 leukemia): 27.3 µM
TGI (HOP-92 NSCLC): 3.31 µM
TGI (OVCAR-3 ovarian): 4.93 µM
TGI (IGROV1 ovarian): 2.74 µM
TGI (HCT-116 colon): 0.651 µM
TGI (MDA-MB-435): 4.61 µM

CC(=O)C(C(=O)c1ccc(C)cc1)[C@@H]1OC(C)(C)O[C@@H]1[C@H]1COC(C)(C)O1 (stereo partly drawn)
TGI (M14 melanoma): 35.8 µM
TGI (CCRF-CEM leukemia): > 36.2 µM
TGI (MCF7 breast): 15.4 µM
TGI (RPMI-8226 leukemia): 12.5 µM
TGI (HL-60(TB) leukemia): 25.1 µM
TGI (PC-3 prostate): > 31.9 µM
TGI (UO-31 renal): > 41.5 µM
TGI (OVCAR-4 ovarian): > 26.3 µM
TGI (EKVX NSCLC): > 100 µM
TGI (K-562 leukemia): > 32 µM
TGI (HOP-92 NSCLC): > 100 µM
TGI (OVCAR-3 ovarian): 24.4 µM
TGI (IGROV1 ovarian): > 74.8 µM
TGI (HCT-116 colon): 15.4 µM
TGI (MDA-MB-435): > 59.8 µM

Cc1ccc(-c2c(C#N)c(-c3ccccc3)n(NS(=O)(=O)c3ccc(C)cc3)c(=O)c2C#N)cc1
TGI (M14 melanoma): > 100 µM
TGI (CCRF-CEM leukemia): 80.3 µM
TGI (MCF7 breast): > 100 µM
TGI (RPMI-8226 leukemia): 31.6 µM
TGI (PC-3 prostate): > 100 µM
TGI (OVCAR-4 ovarian): > 100 µM
TGI (EKVX NSCLC): > 100 µM
TGI (K-562 leukemia): > 100 µM
TGI (HOP-92 NSCLC): > 100 µM
TGI (NCI-H226 lung): > 100 µM
TGI (IGROV1 ovarian): > 100 µM
TGI (HCT-116 colon): > 100 µM
TGI (MDA-MB-435): > 100 µM

COc1cc2c(/C=C3/C(=O)Nc4ccc(O)cc43)c(Cl)n(Cc3ccccc3)c2cc1C
TGI (M14 melanoma): 11.8 µM
TGI (CCRF-CEM leukemia): > 100 µM
TGI (RPMI-8226 leukemia): 6.74 µM
TGI (PC-3 prostate): > 87.1 µM
TGI (UO-31 renal): > 100 µM
TGI (OVCAR-4 ovarian): > 100 µM
TGI (EKVX NSCLC): > 100 µM
TGI (K-562 leukemia): > 100 µM
TGI (HOP-92 NSCLC): > 78.3 µM
TGI (OVCAR-3 ovarian): 0.704 µM
TGI (NCI-H226 lung): 15.5 µM
TGI (IGROV1 ovarian): 16.8 µM
TGI (HCT-116 colon): 1.91 µM
